Measurements published in PubChem BioAssay (NCI).
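48-hour exposure; five concentrations; linearly interpolated endpoints. Here, GI50 denotes the concentration required for 50% inhibition of growth. TGI marks complete inhibition of growth.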

Test system: MDA-MB-468 breast
Test: growth of human tumour cells (NCI), 48 h

| SMILES | GI50 [nM] | TGI [nM] |
| --- | --- | --- |
| COC(=O)c1c2c(c(C)[n+]([O-])c1C)C(=O)C=C(NCc1ccccc1)C2=O | 266 | 1140 |
| Cc1ccc(/C=C(\C#N)c2cc3ccccc3n2C)cc1 | 406 | > 100000 |
| CCCCNNC(=O)c1ccc(Br)cc1 | 1710 | > 50000 |
| COC(=O)c1cc(-c2ccccc2)[nH]c1N/N=C/c1c(Cl)cccc1Cl | 185 | – |
| Cc1ccc2nc3ccccc3c(NCc3ccc(Cl)cc3)c2c1 | 1630 | 6380 |
| O=C(Nc1ccc(F)c(F)c1)c1cc(-c2ccc(F)cc2F)ccc1O | 1120 | 4350 |
| COc1ccc([C@H](CC(=O)O)N2CCN(CCCc3ccc4c(n3)NCCC4)C2=O)cn1 | 111 | 479 |
| O=C1CCc2c(sc3[nH]c(=S)n(-c4cc(C(F)(F)F)cc(C(F)(F)F)c4)c(=O)c23)C1 | 248 | 768 |
| C=C(C)[C@@H]1CCC=C2CC[C@]3(C)[C@H](CC[C@@H]4[C@@]5(C)CCCNC(C)(C)[C@@H]5CC[C@]43C)[C@H]21 | 1610 | 3100 |
| CCC(=O)N1C/C(=C/c2ccc(Cl)cc2)C(=O)/C(=C/c2ccc(Cl)cc2)C1 | 704 | 2080 |
| O=[N+]([O-])c1cc[n+]([O-])c2ccccc12 | 135 | 324 |
| CC(C)(C)c1ccc(C(O)CCCN2CCC(C(O)(c3ccccc3)c3ccccc3)CC2)cc1 (configuration not stated) | 1150 | 2450 |
| CCn1c(=O)c2nc(SC)sc2n(-c2ccc(C)cc2)c1=O | 62000 | > 100000 |
| COc1ccc(-c2cc(=O)n(-c3nc4ccccc4[nH]3)[nH]2)cc1OC | 4300 | 44700 |
| Oc1c(C(Nc2ccccc2Br)c2ccccc2)ccc2cccnc12 (configuration not stated) | 1520 | 6120 |
| Cc1cc2ncc(-c3cc4ccccc4c(N4CCN(C)CC4)n3)nc2cc1C | 2120 | 5110 |
| NC(=N\N=C/c1ccc(O)cc1)/C(N)=N\N=C/c1ccc(O)cc1 | > 100000 | > 100000 |
| C=CC(=O)N1CCC(c2ccc(C(N)=O)c(-c3ccc(Oc4ccccc4)cc3)n2)CC1 | 5760 | 49500 |
| CNC(=O)NCC1OC(n2cnc3c(NC(=O)Nc4ccccc4)ncnc32)C(O[Si](C)(C)C(C)(C)C)C1O[Si](C)(C)C(C)(C)C (configuration not stated) | 3350 | 13900 |
| Cc1cn2c(/C=C3/C(=O)Nc4c3ccc3ccccc43)c(C(F)(F)F)nc2s1 | 1460 | > 100000 |
| Fc1ccc(-c2ncn(C3CCNCC3)c2-c2ccnc(Oc3ccc4c(c3)OCO4)n2)cc1 | 3190 | 8020 |
| COc1cccc2c1C=CC1(O2)Oc2cccc(OC)c2C=C1C (configuration not stated) | 402 | > 100000 |

| SMILES | GI50 [nM] | TGI [nM] |
| --- | --- | --- |
| COc1c(C(C)=O)c(OCCCCOc2c(C(C)=O)c(OC)c3ccoc3c2OC)c(OC)c2occc12 | 2310 | > 100000 |
| C=C(C)[C@@H]1CC[C@]2(COP(=O)(OCC)OCC)CC[C@]3(C)[C@H](CC[C@@H]4[C@@]5(C)CCCNC(C)(C)[C@@H]5CC[C@]43C)[C@@H]12 | 1390 | 2910 |
| COc1ccc2c(c1)nc(NNC(=O)c1cnccn1)c1cccn12 | 227 | 1660 |
| CN(C)c1ccc(Nc2c3ccccc3nc3ccccc23)cc1 | 632 | 2110 |
| Nc1ccn(C2CC(F)C(CO)O2)c(=O)n1 (configuration not stated) | > 100000 | > 100000 |
| CN(C)C(=O)Nc1nc2cc(Cl)c(Cl)cc2[nH]1 | 537 | > 91000 |
| CCOc1ccc2c(-c3ccnc(Nc4cc(OC)cc(C(F)(F)F)c4)n3)cnn2n1 | 836 | > 20500 |
| O=C(CCN1CCCC1)Nc1ccc2c(NCc3ccccc3)c3ccccc3nc2c1 | 274 | 1060 |
| CCOC(=O)NC1CCc2cc(OC)c(OC)c(OC)c2-c2ccc(OC)c(=O)cc21 (configuration not stated) | 548 | > 100000 |
| Cc1ccc(S(=O)(=O)Oc2ccc3c4c(c(=O)oc3c2)CCCCCC4)cc1 | 2040 | > 100000 |
| c1ccc(-c2nn3c(c2-c2ccnc4cc(OCCN5CCOCC5)ccc24)CCC3)nc1 | 30900 | > 100000 |
| COc1ccc(/C=C(/c2ccccc2)[N+](=O)[O-])c(OC)c1 | 1510 | 3400 |
| O=C(O)C[C@H](O)C[C@H](O)/C=C/c1c(C2CC2)nc2ccccc2c1-c1ccc(F)cc1 | 2370 | 12100 |
| CCCCCCCCCCCC1=NC(C)(C)CN1C(C)(C)CO | 1820 | 3670 |
| COc1ccc(C(=O)Cn2c(C(=O)c3ccccc3)nc3ccccc32)cc1 | 817 | 5770 |
| C/C(=C\c1ccn(-c2ccccc2N)n1)[C@@H]1C[C@@H]2O[C@]2(C)CCC[C@H](C)[C@H](O)[C@@H](C)C(=O)C(C)(C)[C@@H](O)CC(=O)O1 | 35.7 | 732 |
| O=c1c2cc(C(F)(F)F)ccc2sc2c(NCCCNCCO)nc3ccccc3c12 | 1570 | 3130 |
| N#Cc1nc(-c2ccc(F)cc2)oc1S(=O)(=O)N1CCCCC1 | 1640 | 3300 |
| Cc1ccc(/C=C/c2c(C(=O)/C=C/c3ccccc3)c(C)nc3ccccc23)cc1 | 1800 | 3470 |
| CC1=CC2C(C(O)CC3(C)C2CC(C)C32OCOC23COCO3)C2(C)C/C(=C/O)C(=O)C=C12 (configuration not stated) | 1790 | 3470 |
| C=C1C(=O)O[C@H]2[C@H]1CC/C(COC(=O)CCCCCC(=O)OC/C1=C/CC[C@@]3(C)O[C@H]3[C@H]3OC(=O)C(=C)[C@@H]3CC1)=C\CC[C@@]1(C)O[C@@H]21 | 1840 | 7100 |
| O=C(NCCN1CCOCC1)OCc1nc2nc(Cl)nc(N3CCOCC3)c2[nH]1 | 375 | 3790 |
